# Assay results taken from US5534554A, “Sucrose ester-C20 to C28 alcohol formulations” (priority 1994, dated 1996).
# “Also recorded” adds a separate entry of the source.
# Key:
# Vero or MDBK cells = assay: Uptake and metabolism in Vero versus MDBK cells; assay type: in vitro ADME, bovine (MDBK)
# Description: FIG. 11 depicts data showing that n-[^14 C]-docosanol is metabolized more by Vero cells than by MDBK cells. Vero or MDBK cells were plated as described in the specification. n-[^14 C]-Docosanol was added to 6 mM (0.24 mM Tetronic 908) and the cultures were incubated 72 hours at 37° C./CO2. Cells were extracted and analyzed on TLC with hexane:diethyl ether:acetic acid (20:30:1; v:v:v) as the developing solvent. With this solvent system the polar phosphatides remain at the origin. The position of migration of n-docosanol is indicated. Duplicate plates were treated with an identical suspension lacking the radioactive label, and the numbers of cells in these duplicate plates were determined by counting cells excluding trypan blue with a hemocytometer.
# When we compared total cellular uptake and relative metabolism, the results were strikingly clear. First, both the total amounts of n-docosanol uptake and the relative amounts of metabolic conversion were 3-4 times higher in Vero than in MDBK cells. […] Nonetheless, of the counts that are metabolized in two cells lines, the relative amounts in the major classes of phosphatides that are formed, phosphatidylcholine and phosphatidylethanolamine, are not different in the two cell lines.
# poliovirus = assay type: cell-based; conditions: nonenveloped virus
# HIV-1 = HIV-1 replication in PHA/IL-2-stimulated human peripheral blood mononuclear cells (p24 ELISA); assay type: cell-based
# Description: Human peripheral blood mononuclear cells were cultured in medium containing 1 μg/ml PHA plus 5 units/ml IL-2 alone or also containing 100 μg/ml PFA, […] F-68 control vehicle contained in the high dose of n-docosanol/Pluronic. After overnight incubation, the cultures were inoculated with HIV-1 at a multiplicity of infection of 1 virion/cell. After 24 hours incubation at 37° C., the cultures were washed and inoculated with fresh medium containing PHA and IL-2, but lacking inhibitor. Replication of HIV-1 was determined 4 days later by quantitation of viral antigens by a p24-specific ELISA for HIV-1.
# Our initial studies on HIV were conducted in collaboration with a U.S. National Institutes of Health laboratory and one of several experiments of this type is summarized in FIG. 13. Normal human peripheral blood mononuclear cells were activated with […] PHA plus 5 units/ml of IL-2 in medium alone or in the presence of the n-docosanol, Pluronic F-68 control vehicle, or phosphonoformic acid (PFA). The next day, the cultures were inoculated with HIV-1 and examined 4 days later for evidence of viral replication by detection of the p24 viral antigen. […] The dose response of HIV-1 to n-docosanol indicates an ED 50 of about 6-9 mM.
# HSV [1] = assay: Secondary plaque assay of infectious virions; assay type: cell-based; conditions: secondary plaque assay cultures
# Excerpt: Finally, the replication of infectious virions as measured in secondary plaque assay cultures is markedly diminished by 99% or more in n-docosanol-treated cells.
# Vero cells [2] = assay: Cellular uptake and distribution of radiolabeled n-docosanol in Vero cells
# murine retroviruses = assay: Replication of murine retroviruses in vitro and in vivo
# Excerpt: n-Docosanol has anti-retroviral activity both in vitro and in vivo. […] Notwithstanding the implications for treatment of AIDS, availability of a treatment regimen for diseases caused by retroviruses like feline leukemia virus, bovine leukemia virus, as well HTLV-1 and -2 would have substantial benefits in humanitarian terms.
# [3] = test system: recurrent herpes labialis; assay: Study A: Phase 2 study in recurrent herpes labialis; assay type: in vivo, human; conditions: for time to healing, mean: 10% cream, all treatment episodes
# Excerpt: Two clinical efficacy studies have been completed. Study A was a randomized, double-blind, placebo-controlled Phase 2 study in 63 patients (male and female) with recurrent herpes labialis. All of the 31 n-docosanol 10% cream-treated patients in the herpes labialis study, Study A, completed their treatment; 2 of those 31 patients reported a burning or stinging sensation after application of the cream. […] Study B was a randomized, double-blind, placebo-controlled trial in 44 female patients with recurrent herpes genitalis.
# Sixty five patients (aged 18-60) took part in the Study A, 32 patients were initially randomized to receive 10% n-docosanol cream and 33 were initially randomized to receive placebo cream. Treatment was patient-initiated, and treatment initiation was defined as `early` if the treatment started at prodrome or erythema stage and as `late` if started at the papule stage or later. Two patients were excluded from the analysis. Of the 63 evaluable patients, 22 were entered into the cross-over phase of the study. In addition, 13 patients treated more than one episode with the same study medication. Therefore, a total of 98 herpes episodes--48 treated with 10% n-docosanol cream and 50 treated with placebo cream--were analyzed.
# [4] = test system: acyclovir-resistant HSV-2; assay: Plaque inhibition, acyclovir-resistant HSV-2 in Vero cells; assay type: cell-based; conditions: FIG. 7, Panel B
# Human Herpesvirus-6 = assay: Antiviral activity against human herpesvirus-6; assay type: cell-based
# HSV [5] = assay: Inhibition of HSV-induced plaques in Vero versus MDBK cells; assay type: cell-based
# Friend virus = assay: Friend virus-induced leukemia and viremia in mice; assay type: in vivo, BALB/c mice; conditions: intravenous
# HSV-specific receptors = assay: Binding of herpes virus to HSV-specific receptors on target cells; assay type: cell-based
# Excerpt: The collective implications of the results of the studies are that the compound appears to interfere with one or more of the common pathways of viral entry into the cell and migration to the nucleus of infected target cells.
# Varicella Zoster Virus = assay: Antiviral activity against varicella zoster virus; assay type: cell-based; conditions: Table 6, human viruses
# Vero cells [6] = test system: Vero cells
# [7] = test system: Herpes simplex virus type 2; assay: Inhibition of HSV type 2 infectivity in simian and human cell lines; assay type: cell-based, HSV-2
# reovirus = assay: Antiviral activity against reovirus; assay type: cell-based; conditions: nonenveloped virus
# Influenza A = assay: Antiviral activity against influenza A; assay type: cell-based; conditions: Table 6, human viruses
# Vero cells [8] = test system: Vero cells; remark: listed apart in the source
smiles,measurement,setting,value
CCCCCCCCCCCCCCCCCCCCCCO [n-docosanol],"relative metabolic conversion, Vero relative to MDBK cells",Vero or MDBK cells,3-4 times
same,"total uptake, Vero relative to MDBK cells",Vero or MDBK cells,3-4 times
same,"amount of phosphatide metabolite, Vero relative to MDBK cells","Vero or MDBK cells; after 72 hours, FIG. 11",~4 fold
same,relative amounts of phosphatidylcholine and phosphatidylethanolamine in the two cell lines,Vero or MDBK cells; of counts metabolized,not different
same,activity against poliovirus,poliovirus,no detectable activity
same,activity at the highest dose compared with PFA,HIV-1; FIG. 13,"comparable to that observed with the very potent antiviral compound, phosphonoformic acid (PFA)"
same,EC50,"HIV-1; Human immunodeficiency virus 1, PBMC, dose response of HIV-1, read-out: ED 50 (the source's name)",6 to 9 mM
same,susceptibility to antiviral activity: HIV-1,"HIV-1; Table 6, human viruses",susceptible
same,inhibition of HIV-1 replication,"HIV-1; n-docosanol/Pluronic, FIG. 13",dose-related inhibitory activity
same,antiviral HIV activity in Tetronic,HIV-1; suspended in Tetronic,even higher levels of antiviral HIV activity
same,decrease of replication of infectious virions,HSV [1],≥ 99%
same,radioactivity in the soluble cytoplasmic fraction,Vero cells [2]; after 12 hours of exposure,the balance of radioactivity
same,actual bioactive dose relative to the dose shown in FIGS. 7 and 9,"Vero cells [2]; cultures, from uptake studies",1/1000
same,reduction of uptake of n-docosanol by energy poisons,"Vero cells [2]; sodium azide and 2-deoxyglucose, Vero cells",90%
same,inhibition of murine retrovirus replication,murine retroviruses,does inhibit replication of murine retroviruses in vitro and in vivo
same,"time to healing, mean",[3]; all treatments,5.7 days
same,"time to healing, mean",[3]; early treatment,3.4 days
same,reduction in mean overall healing time versus placebo,"[3]; all 98 episodes, P=0.02",1.6 days
same,reduction in mean healing time,"[3]; all episodes, early treatment, P=0.05",3.3 days
same,"difference in healing time, late treatment","[3]; cross-over portion, P=0.03",significant difference in favor of n-docosanol
same,inhibition of acyclovir-resistant HSV-2 mutant,[4],very clearly susceptible
same,inhibition of in vitro replication of human herpes virus 6,Human Herpesvirus-6,inhibits in vitro replication
same,susceptibility to antiviral activity: Human Herpesvirus-6,"Human Herpesvirus-6; Table 6, human viruses",susceptible
same,"effectiveness in inhibiting HSV-induced plaques, Vero relative to MDBK cells",HSV [5],3-4 fold
same,inhibition of development of leukemic foci,Friend virus; FIG. 12 Panel A,very clear dose-related inhibitory affect
same,inhibition of development of viremia,Friend virus; FIG. 12 Panel B,very clear dose-related inhibitory affect
same,effect on viral binding to receptors,HSV-specific receptors,does not interfere with binding of herpes virus; also recorded: no effect
same,susceptibility to antiviral activity: Varicella Zoster Virus,Varicella Zoster Virus,susceptible
same,counts migrating in the region of phosphatidylcholine,Vero cells [6],approximately 62%
same,counts migrating in the region of phosphatidylethanolamine,Vero cells [6],~38%
same,"levels of metabolic conversion, Tetronic relative to Pluronic",Vero cells [6],3 fold
same,metabolic conversion,Vero cells [6],progressively metabolized to polar compounds
same,susceptibility to antiviral activity: Herpes Simplex - 2,[7]; Table 6,susceptible
same,inhibitory activity in vitro,[7]; suspension in Pluronic F-68,excellent inhibitory activity
same,activity against reovirus,reovirus,no detectable activity
same,susceptibility to antiviral activity: Influenza A,Influenza A,susceptible
same,fraction of total n-docosanol cell-associated,Vero cells [8],less than 1%
same,molecules per cell,Vero cells [8],~8×10^9 molecules per cell
same,radioactive compound in cell membranes,Vero cells [8],75%
same,radioactive compound in nuclear fractions,Vero cells [8],less than 1%
same,reversibility of cell association,Vero cells [8],irreversible
same,time of peak uptake per cell,Vero cells [8],6 to 12 h
same,"total uptake, Tetronic versus Pluronic suspension",Vero cells [8],equivalent
